# Patent US20220062299A1, “USE OF GLUCOCORTICOID STEROIDS IN PREVENTING AND TREATING CONDITIONS OF MUSCLE WASTING, AGING AND METABOLIC DISORDER” (NORTHWESTERN UNIVERSITY, priority 2018, published 2022)
# System: Dysf-null mice
# Test: Body weight, muscle mass, muscle function, plethysmography, echocardiography, Dysf-null mice, 32 weeks
# Type: in vivo, mouse
# Conditions: weekly prednisone
# Protocol: Histology. Excised tissues (muscles, omental fat, heart) were placed in 10% formaldehyde (Cat #245-684; Fisher Scientific, Waltham, Mass.) for histologic processing. Seven μm sections from the center of paraffin-embedded muscles were stained with hematoxylin and eosin (H&E; cat #12013B, 1070C; Newcomer Supply, Middleton, Wis.) and Masson's trichrome (Cat #HT-15; Sigma-Aldrich; St. Louis, Mo.). Myofiber/adipocyte CSA quantitation was conducted on 400 myofibers/adipocytes per tissue per mouse. Imaging was performed using a Zeiss Axio Observer A1 microscope, using 10× and 20× (short-range) objectives. Brightfield pictures were acquired via Gryphax software (version 1.0.6.598; Jenoptik, Jena, Germany). Area quantitation was performed by means of ImageJ (Schneider et al., 2012). Sample processing, imaging and CSA quantitation were conducted blinded to treatment groups.
# Muscle function, whole-body plethysmography, echocardiography. Forelimb grip strength was monitored using a meter (Cat #1027SM; Columbus Instruments, Columbus, Ohio) blinded to treatment groups. Animals performed ten pulls with 5 seconds rest on a flat surface between pulls. Immediately before sacrifice, in situ tetanic force from tibialis anterior muscle was measured using a Whole Mouse Test System (Cat #1300A; Aurora Scientific, Aurora, ON, Canada) with a 1N dual-action lever arm force transducer (3000-LR, Aurora Scientific, Aurora, ON, Canada) in anesthetized animals (0.8 I/min of 1.5% isoflurane in 100% O2). […] Time of contraction was assessed as time to max tetanic value within the 0.0-0.5 sec range of each tetanic contraction, while time of relaxation was assessed as time to 90% min tetanic value within the 0.5-0.8 sec range of every tetanus. […] Data was recorded for a total of 15 minutes broken into 3 consecutive 5-minute periods. […] Cardiac function was assessed by echocardiography, which was conducted under anesthesia (0.8 L/min of 1.5% vaporized isoflurane in 100% O2) on mice between 2 and 5 days before sacrifice. […]
structure (smiles),measurement,value
"C[C@]12C=CC(=O)C=C1CC[C@@H]1[C@@H]2C(=O)C[C@@]2(C)[C@H]1CC[C@]2(O)C(=O)CO [prednisone, Prednisone]",body weight trend,did not induce significant changes
same,muscle mass,increased
same,"performance of limb muscles, respiratory muscles, and heart",improved
